Experimental data taken from PubChem BioAssay AID504342 (Broad Institute, 2011).
Calls of active or inactive are those of the source.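 How the source made its calls: active means fitted curve reaches 10% of the positive control caspase activation at or below the top valid tested dose; inactive means signal shifts the opposite way, plus the rest.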

System: not listed separately
Assay: inducers of caspase signal, alternate A1 construct – cell-based, MEF, plate reader, dry powder, set 2, orthogonal assay for A1 inhibitor project, dose response (AID 504342)
Conditions: MEF Flag-A1-IRES-BIM, caspase-Glo luminescence, 3 h; at 35 µM (top of the series)

Row | SMILES | caspase activation
1 | CCSc1c([N+](=O)[O-])c(=O)oc2ccccc12 | -1.44% (inactive)
2 | O=c1oc2ccccc2c(Nc2cc(Cl)cc(Cl)c2)c1[N+](=O)[O-] | -0.897% (inactive)
3 | Cc1ccc(Sc2cc(=O)n(C)c3ccccc23)cc1 | -6.4% (inactive)
4 | Cc1ccc(Sc2c([N+](=O)[O-])c(=O)oc3ccccc23)cc1 | -2.87% (inactive)
5 | C/C1=C/C(=O)O[C@@H]2C[C@@H](CC[C@H](C)/C=C\CC1)O[C@@](O)(C1CSC(=O)N1)C2 (stereo partly specified) | 2.78% (inactive)
6 | Cc1ccc(Nc2c([N+](=O)[O-])c(=O)n(C)c3ccccc23)cc1 | -0.435% (inactive)
7 | Cn1c(=O)c([N+](=O)[O-])c(Nc2ccc(Cl)cc2)c2ccccc21 | -0.882% (inactive)
8 | O=c1oc2ccccc2c(N2CCCCC2)c1[N+](=O)[O-] | -2.6% (inactive)
9 | O=C(Oc1cccc(/C=N/Nc2nc(Nc3ccccc3)nc(N3CCOCC3)n2)c1)c1ccco1 | 2.95% (inactive)
10 | Cc1ccc(Nc2c([N+](=O)[O-])c(=O)oc3ccccc23)cc1 | 0.875% (inactive)
11 | O=c1oc2ccccc2c(Sc2ccccc2)c1[N+](=O)[O-] | -6.2% (inactive)
12 | CCOC(=O)N1CCN(c2c([N+](=O)[O-])c(=O)n(C)c3ccccc23)CC1 | -0.543% (inactive)
13 | O=[N+]([O-])c1cnc2ccccc2c1Sc1ccccc1 | -1.68% (inactive)
14 | CCOCCCNc1c([N+](=O)[O-])c(=O)n(C)c2ccccc12 | 1.28% (inactive)
15 | O=c1oc2ccccc2c(Cl)c1[N+](=O)[O-] | -5.93% (inactive)
16 | CN1C(=O)C(C)(C)N(Cc2ccccc2)c2ccccc21 | 1.13% (inactive)

System: MEF Flag-A1-IRES-BIM, caspase-Glo luminescence, 3 h
Assay: as above
Conditions: not given

Row | SMILES | AC10
17 | Cn1c(=O)c([N+](=O)[O-])c(Cl)c2ccccc21 | 1.11 µM
18 | Cn1c(=O)c([N+](=O)[O-])c(Oc2ccccc2)c2ccccc21 | > 35 µM (inactive)
19 | Cc1ccc(Sc2c([N+](=O)[O-])c(=O)n(C)c3ccccc23)cc1 | 5.09 µM
20 | Cn1c(=O)c([N+](=O)[O-])c(-n2cnc3ccccc32)c2ccccc21 | 15.1 µM
21 | Cc1ccc(Sc2c([N+](=O)[O-])cnc3ccccc23)cc1 | > 16 µM (inactive)
